From US8841413B2, “Antidiabetic compounds” (Cadila Healthcare Limited, priority 2006, dated 2014)
Where two headings read alike, the source gives them in different places.

Assays:
[1] = target: DPP IV (Homo sapiens, UniProt P27487); experiment: Stability against DPP IV enzyme; format: in vitro ADME; conditions: 2 μM, 37° C.; for half-life: read-out: half-life (t1/2) with DPP-IV enzyme
Method: (§1) Reactions were terminated by the addition of TFA/H2O (15 mL, 10% (v/v)). […] The column was equilibrated with TFA/H2O, at a flow rate of 1 mL/min. […] The absorbance was monitored at 206 nm using UV detector and peaks were collected manually prior to ESI-MS analysis.

[2] = Stability in simulated gastric fluid; format: in vitro ADME; conditions: 2 μM, 37° C., pH 1.5, pepsin; for half-life: simulated gi fluid, read-out: half-life (t1/2) in simulated gastric fluid
Method: as §1

[3] = Stability in human plasma; format: in vitro ADME; conditions: 2 μM, 37° C.; for half-life: human, plasma, read-out: half-life (t1/2) in human plasma
Method: as §1

[4] = Stability against liver microsomes; format: in vitro ADME, human; conditions: 2 μM, 37° C.; for half-life: human, microsomes, read-out: half-life (t1/2) with liver microsomes
Method: as §1

[5] = target: T1, Human GLP-1 receptor (Homo sapiens, UniProt P43220); format: cell-based
T1 construct: The full-length cDNA was cloned in pcDNA3.1(+); expressed in transfected cells
Summary of the method: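 Stably transfected CHO cells expressing human GLP-1R, passages 9-25, exposed to compounds for 30 min at 37 °C. Lysed in ice-cold 0.1 N HCl; total cAMP by immunoassay, protein by micro BCA; expressed as percent of water vehicle control, mean±SD.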

[6] = Stability in simulated intestinal fluid; format: in vitro ADME; conditions: 2 μM, 37° C., pH 7.5; for half-life: simulated gi fluid, read-out: half-life (t1/2) in simulated intestinal fluid
Method: as §1

Sequence of DPP IV (P27487 whole entry, species assumed): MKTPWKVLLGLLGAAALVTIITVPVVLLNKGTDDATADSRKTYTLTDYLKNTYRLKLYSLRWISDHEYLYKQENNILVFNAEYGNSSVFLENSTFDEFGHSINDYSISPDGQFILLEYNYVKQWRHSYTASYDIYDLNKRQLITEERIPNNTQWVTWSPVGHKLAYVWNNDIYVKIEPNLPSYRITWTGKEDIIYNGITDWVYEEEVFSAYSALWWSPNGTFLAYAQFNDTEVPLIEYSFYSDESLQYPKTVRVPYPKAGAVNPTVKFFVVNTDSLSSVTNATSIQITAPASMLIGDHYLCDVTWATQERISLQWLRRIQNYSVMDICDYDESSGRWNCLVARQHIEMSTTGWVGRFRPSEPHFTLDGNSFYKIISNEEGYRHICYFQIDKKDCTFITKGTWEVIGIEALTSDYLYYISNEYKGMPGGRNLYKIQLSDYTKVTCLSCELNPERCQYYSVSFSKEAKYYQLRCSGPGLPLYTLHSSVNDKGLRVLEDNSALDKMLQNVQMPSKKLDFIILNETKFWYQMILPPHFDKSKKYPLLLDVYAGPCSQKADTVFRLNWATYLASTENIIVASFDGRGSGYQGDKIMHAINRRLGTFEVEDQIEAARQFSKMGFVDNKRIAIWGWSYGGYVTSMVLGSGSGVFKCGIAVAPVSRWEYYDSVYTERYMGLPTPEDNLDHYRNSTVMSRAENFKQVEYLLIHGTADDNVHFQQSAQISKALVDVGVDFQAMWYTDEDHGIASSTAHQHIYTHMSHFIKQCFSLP
T1 sequence (P43220 24-463): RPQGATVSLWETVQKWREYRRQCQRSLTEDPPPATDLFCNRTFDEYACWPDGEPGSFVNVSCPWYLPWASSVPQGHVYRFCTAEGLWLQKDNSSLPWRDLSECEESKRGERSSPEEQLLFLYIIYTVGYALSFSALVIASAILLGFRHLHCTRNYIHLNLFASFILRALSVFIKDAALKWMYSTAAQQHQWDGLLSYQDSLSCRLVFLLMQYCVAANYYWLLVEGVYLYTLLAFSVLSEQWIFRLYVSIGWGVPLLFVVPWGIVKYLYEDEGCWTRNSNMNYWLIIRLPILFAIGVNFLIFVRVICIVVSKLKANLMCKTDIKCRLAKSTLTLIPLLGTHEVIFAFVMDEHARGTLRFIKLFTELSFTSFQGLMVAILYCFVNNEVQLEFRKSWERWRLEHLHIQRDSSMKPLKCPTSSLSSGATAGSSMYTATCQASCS

Compound	% degradation in 24 h when incubated with DPP-IV enzyme [1]	half-life [1]	% degradation in 24 h when incubated with simulated gastric fluid [2]	half-life [2]	% degradation in 24 h when incubated with human plasma [3]	half-life [3]	half-life (t1/2) with liver microsomes [4]	% degradation in 24 h when incubated with liver microsomes [4]	Human GLP-1 R activity (cAMP release), % activity with respect to control ([5]; 1 nM test compound)	Human GLP-1 R activity (cAMP release), % activity with respect to control ([5]; 10 nM test compound)	Human GLP-1 R activity (cAMP release), % activity with respect to control ([5]; 100 nM test compound)	Human GLP-1 R activity (cAMP release), % activity with respect to control ([5]; 1 μM test compound)	Human GLP-1 R activity (cAMP release), % activity with respect to control ([5]; 10 μM test compound)	% degradation in 24 h when incubated with simulated intestinal fluid [6]	half-life [6]	half-life [4]
CCc1cc(OC)ccc1-c1ccc(CC(NC(=O)[C@H](CC(=O)O)NC(=O)[C@H](CO)NC(=O)[C@@H](NC(=O)C(C)(Cc2ccccc2F)NC(=O)[C@@H](NC(=O)CNC(=O)[C@H](CCC(N)=O)NC(=O)C2(NC(=O)[C@@H](N)Cc3c[nH]cn3)CC2)[C@@H](C)O)[C@@H](C)O)C(=O)NC(Cc2ccc(-c3ccccc3C)cc2)C(N)=O)cc1 (single isomer, unassigned) [compound 33]	00%	> 24 h	00%	> 24 h	00%	> 24 h	(5) h	33%	99 ± 0.11%	99 ± 0.13%	99 ± 0.16%	99 ± 0.06%	99 ± 0.10%	00%	> 24 h	–
CCc1cc(OC)ccc1-c1ccc(CC(NC(=O)[C@H](CC(=O)O)NC(=O)[C@H](CO)NC(=O)[C@@H](NC(=O)C(C)(Cc2ccccc2F)NC(=O)[C@@H](NC(=O)CNC(=O)[C@H](CCC(N)=O)NC(=O)C(C)(C)NC(=O)[C@@H](N)Cc2c[nH]cn2)[C@@H](C)O)[C@@H](C)O)C(=O)NC(Cc2ccc(-c3ccccc3C)nc2)C(N)=O)cc1 (single isomer, unassigned) [compound 30]	00%	> 24 h	00%	> 24 h	00%	> 24 h	(5) h	33%	93 ± 0.11%	99 ± 0.09%	99 ± 0.06%	99 ± 0.14%	99 ± 0.19%	00%	> 24 h	–
CCc1cc(OC)ccc1-c1ccc(CC(NC(=O)[C@H](CC(=O)O)NC(=O)[C@H](CO)NC(=O)[C@@H](NC(=O)C(C)(Cc2ccccc2F)NC(=O)[C@@H](NC(=O)CNC(=O)[C@H](CCC(N)=O)NC(=O)C(C)(C)NC(=O)[C@@H](N)Cc2c[nH]cn2)[C@@H](C)O)[C@@H](C)O)C(=O)NC(Cc2ccc(-c3ccccc3C(F)(F)F)cc2)C(N)=O)cc1 (single isomer, unassigned) [compound 32]	00%	> 24 h	00%	> 24 h	00%	> 24 h	(5) h	32%	99 ± 0.06%	99 ± 0.06%	99 ± 0.08%	99 ± 0.10%	99 ± 0.12%	00%	> 24 h	–

Second part, the compound after the results:

% degradation in 24 h when incubated with DPP-IV enzyme [1]	half-life [1]	% degradation in 24 h when incubated with simulated gastric fluid [2]	half-life [2]	% degradation in 24 h when incubated with human plasma [3]	half-life [3]	half-life (t1/2) with liver microsomes [4]	% degradation in 24 h when incubated with liver microsomes [4]	Human GLP-1 R activity (cAMP release), % activity with respect to control ([5]; 1 nM test compound)	Human GLP-1 R activity (cAMP release), % activity with respect to control ([5]; 10 nM test compound)	Human GLP-1 R activity (cAMP release), % activity with respect to control ([5]; 100 nM test compound)	Human GLP-1 R activity (cAMP release), % activity with respect to control ([5]; 1 μM test compound)	Human GLP-1 R activity (cAMP release), % activity with respect to control ([5]; 10 μM test compound)	% degradation in 24 h when incubated with simulated intestinal fluid [6]	half-life [6]	half-life [4]	Compound
00%	> 24 h	50%	4 h	00%	> 24 h	–	86%	60 ± 0.12%	92 ± 0.15%	98 ± 0.18%	99 ± 0.03%	99 ± 0.09%	00%	> 24 h	2 h	CCc1cc(OC)ccc1-c1ccc(CC(NC(=O)[C@H](CC(=O)O)NC(=O)[C@H](CO)NC(=O)[C@@H](NC(=O)[C@H](Cc2ccccc2)NC(=O)[C@@H](NC(=O)CNC(=O)[C@H](CCC(N)=O)NC(=O)C(C)(C)NC(=O)[C@@H](N)Cc2c[nH]cn2)[C@@H](C)O)[C@@H](C)O)C(=O)NC(Cc2ccc(-c3ccccc3C)cc2)C(N)=O)cc1 (single isomer, unassigned) [compound 13]
00%	> 24 h	00%	> 24 h	00%	> 24 h	(5) h	35%	96 ± 0.09%	99 ± 0.07%	99 ± 0.04%	99 ± 0.01%	99 ± 0.08%	00%	> 24 h	–	CCc1cc(OC)ccc1-c1ccc(CC(NC(=O)[C@H](CC(=O)O)NC(=O)[C@H](CO)NC(=O)[C@@H](NC(=O)C(C)(Cc2ccccc2F)NC(=O)[C@@H](NC(=O)CNC(=O)[C@H](CCC(N)=O)NC(=O)C2(NC(=O)[C@@H](N)Cc3c[nH]cn3)CC2)[C@@H](C)O)[C@@H](C)O)C(=O)NC(Cc2ccc(-c3ccccc3C(F)(F)F)cc2)C(N)=O)cc1 (single isomer, unassigned) [compound 36]
00%	> 24 h	41%	4 h	00%	> 24 h	–	80%	96 ± 0.09%	99 ± 0.07%	99 ± 0.04%	99 ± 0.01%	99 ± 0.08%	00%	> 24 h	2 h	CCc1cc(OC)ccc1-c1ccc(CC(NC(=O)[C@H](CC(=O)O)NC(=O)[C@H](CO)NC(=O)[C@@H](NC(=O)[C@H](Cc2ccccc2)NC(=O)[C@@H](NC(=O)CNC(=O)[C@H](CCC(N)=O)NC(=O)C2(NC(=O)[C@@H](N)Cc3c[nH]cn3)CC2)[C@@H](C)O)[C@@H](C)O)C(=O)NC(Cc2ccc(-c3ccccc3C(F)(F)F)cc2)C(N)=O)cc1 (single isomer, unassigned) [compound 20]
00%	> 24 h	43%	4 h	00%	> 24 h	–	84%	69 ± 0.09%	98 ± 0.07%	99 ± 0.04%	99 ± 0.01%	99 ± 0.08%	00%	> 24 h	2 h	CCc1cc(OC)ccc1-c1ccc(CC(NC(=O)[C@H](CC(=O)O)NC(=O)[C@H](CO)NC(=O)[C@@H](NC(=O)[C@H](Cc2ccccc2)NC(=O)[C@@H](NC(=O)CNC(=O)[C@H](CCC(N)=O)NC(=O)C(C)(C)NC(=O)[C@@H](N)Cc2c[nH]cn2)[C@@H](C)O)[C@@H](C)O)C(=O)NC(Cc2ccc(-c3ccccc3C(F)(F)F)cc2)C(N)=O)cc1 (single isomer, unassigned) [compound 16]
